Drawing on US6579881B2 (Eisai Co., Ltd., priority 1997, dated 2003), this text covers minimal effective dose and Ki for 22 compounds.

Counter-ions that a name gives are not always drawn. Like-named read-outs stand apart in the source and are kept apart here.

In test [1] the test system is Straub's tail reaction (hyper-muscle tone in the tail). The test can be described thus: Morphine induced Straub's tail phenomenon in mice. The test is classed as in vivo. Conditions: Mus musculus, male ddY mice, 15 min before morphine hydrochloride 12.5 mg/kg s.c., statistically significant (p<0.05).
A further test addresses serotonin 2 receptor (Rattus norvegicus, UniProt P14842). Kind of test: Binding test on [3H] ketanserin (serotonin 2 receptor). Conditions: [3H] ketanserin 0.3 nM, receptor fraction of rat cerebral cortex; read-out: 5HT2.
A further test addresses α1 adrenalin receptor. Kind of test: Binding test on [3H] prazosin (α1 adrenalin receptor). Also on record: species or system rat. The settings on record: [3H] prazosin about 0.2 nM, receptor fraction of rat cerebral cortex.
A further test has as its target T1, serotonin 1A receptor (Rattus norvegicus, UniProt P19327).
T1 construct: To the receptor fraction of the hippocampus were added a test compound and 0.5 nM of [^3H]; 8-hydroxy-dipropylaminotetralin; from tissue; host or cells: SD rat hippocampus, membrane (receptor) fraction
T1 sequence (P19327 1-422): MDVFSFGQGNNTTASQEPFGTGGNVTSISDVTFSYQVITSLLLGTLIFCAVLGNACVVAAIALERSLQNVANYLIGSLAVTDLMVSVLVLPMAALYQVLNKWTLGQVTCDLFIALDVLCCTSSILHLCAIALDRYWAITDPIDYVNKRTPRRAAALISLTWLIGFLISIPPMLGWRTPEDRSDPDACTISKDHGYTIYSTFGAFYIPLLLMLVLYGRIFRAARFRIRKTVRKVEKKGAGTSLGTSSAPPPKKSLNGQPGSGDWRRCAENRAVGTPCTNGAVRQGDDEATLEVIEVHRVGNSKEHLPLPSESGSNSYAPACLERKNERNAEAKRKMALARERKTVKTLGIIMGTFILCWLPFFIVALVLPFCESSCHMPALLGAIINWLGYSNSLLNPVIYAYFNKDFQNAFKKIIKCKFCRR
The test can be described thus: Binding test on [3H] 8-hydroxy-dipropylaminotetralin (serotonin 1A receptor). Conditions: [3H] 8-OH-DPAT 0.5 nM, receptor fraction of rat hippocampus; read-out: 5HT1a.

Where [2] appears, read: ip, i.p., read-out: minimal effective dose i.p.
Setting [3] is: po, p.o., read-out: minimal effective dose p.o.

Chain of serotonin 2 receptor (P14842 whole entry): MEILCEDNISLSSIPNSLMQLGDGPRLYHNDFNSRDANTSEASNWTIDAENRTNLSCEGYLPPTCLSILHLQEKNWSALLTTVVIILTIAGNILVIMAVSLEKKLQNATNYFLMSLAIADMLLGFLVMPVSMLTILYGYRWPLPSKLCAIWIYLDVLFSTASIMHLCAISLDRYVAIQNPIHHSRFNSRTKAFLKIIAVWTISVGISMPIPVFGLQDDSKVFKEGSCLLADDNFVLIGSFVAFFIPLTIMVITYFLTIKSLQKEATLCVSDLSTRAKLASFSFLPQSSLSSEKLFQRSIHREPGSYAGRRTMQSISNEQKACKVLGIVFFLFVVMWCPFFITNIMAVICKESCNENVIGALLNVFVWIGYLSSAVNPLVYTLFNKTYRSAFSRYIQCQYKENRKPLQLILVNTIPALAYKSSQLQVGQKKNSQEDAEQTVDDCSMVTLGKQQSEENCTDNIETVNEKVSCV

On to `NCC(CC(=O)O)c1ccc(Cl)cc1` (stereo not drawn) [Baclofen, baclofen, reference compound], for which the minimal effective dose in test [1] (setting [2]) was 3 mg/kg; in test [1] (setting [3]), 10 mg/kg.
For `CN(C)CCC=C1c2ccccc2C=Cc2ccccc21` [Cyclobenzaprine, cyclobenzaprine hydrochloride, reference compound], the minimal effective dose in test [1] (setting [2]) worked out at 10 mg/kg.
Consider `CN1CCC(=C2c3ccccc3C=Cc3ccccc32)CC1` [Cyproheptadine, cyproheptadine hydrochloride, reference compound], for which, in test [1] (setting [2]), the minimal effective dose was 3 mg/kg.
As for `Fc1ccc(CCN2CCC(N3CCc4ccccc43)CC2)cc1` [Example 9, 1-[1-(4-fluorophenethyl)piperidin-4-yl]indoline], the Ki at serotonin 2 receptor is 11.6 nM; at α1 adrenalin receptor it was 76.5 nM; at serotonin 1A receptor it was 3 nM. For the same compound, in test [1] (setting [2]), the minimal effective dose was determined as 10 mg/kg.
As for `OCc1cccc(CCN2CCC(N3CCc4ccccc43)CC2)c1` [Example 22, 1-[1-(3-hydroxymethylphenethyl)piperidin-4-yl]indoline], the results for the Ki on serotonin 2 receptor, at α1 adrenalin receptor and on serotonin 1A receptor were 12.2 nM, 113 nM and 24 nM, respectively. The minimal effective dose in test [1] (setting [3]) was over 10 mg/kg.
On to `O/N=C/c1ccc(CCN2CCC(N3CCc4ccccc43)CC2)cc1` [Example 34, 1-[1-(4-hydroxyiminomethylphenethyl)piperidin-4-yl]indoline], for which the results for the Ki on serotonin 2 receptor and at serotonin 1A receptor were 9.1 nM and 1.9 nM, respectively. Further, the minimal effective dose in test [1] (setting [2]) is at most 10 mg/kg; in test [1] (setting [3]), 30 mg/kg.
Take `CC(=O)NCc1ccc(CCN2CCC(N3CCc4ccccc43)CC2)cc1` [Example 36, 1-[1-(4-acetamidomethylphenethyl)piperidin-4-yl]indoline]: the figures for the Ki on serotonin 2 receptor, at α1 adrenalin receptor and at serotonin 1A receptor were 14.9 nM, 39 nM and 4.5 nM, respectively. In addition, the minimal effective dose in test [1] (setting [2]) was 1 mg/kg; in test [1] (setting [3]), at most 3 mg/kg.
In the case of `NS(=O)(=O)c1ccc(CCN2CCC(N3CCc4ccccc43)CC2)cc1` [Example 42, 1-[1-(4-sulfamoylphenethyl)piperidin-4-yl]indoline], the results for the Ki at serotonin 2 receptor, at α1 adrenalin receptor and on serotonin 1A receptor were 5.7 nM, 230 nM and 35.8 nM, respectively. For the same compound, the minimal effective dose was at most 10 mg/kg in test [1] (setting [2]) and 10 mg/kg in test [1] (setting [3]).
As for `COc1ncc(CCN2CCC(N3CCc4ccccc43)CC2)s1` [Example 65, 1-[1-(2-methoxy-5-thiazolyl)ethylpiperidin-4-yl]indoline], the Ki on serotonin 2 receptor is 4.8 nM; at serotonin 1A receptor, 8.8 nM. For the same compound, in test [1] (setting [3]), the minimal effective dose was found to be 30 mg/kg.
Consider `Fc1ccc(CCN2CCC(N3CCc4ccc(F)cc43)CC2)cc1` [Example 103, 1-[1-(4-fluorophenethyl)piperidin-4-yl]-6-fluoroindoline], for which the Ki turned out to be 15.8 nM on serotonin 2 receptor, 77.7 nM at α1 adrenalin receptor and 3.9 nM on serotonin 1A receptor. Besides, the minimal effective dose in test [1] (setting [2]) was at most 10 mg/kg; in test [1] (setting [3]), over 30 mg/kg.
As for `COc1ccc2c(c1)N(C1CCN(CCc3ccc(F)cc3)CC1)CC2` [Example 106, 1-[1-(4-fluorophenethyl)piperidin-4-yl]-6-methoxyindoline], the results for the Ki at serotonin 2 receptor, on α1 adrenalin receptor and at serotonin 1A receptor were 6.4 nM, 71.3 nM and 0.7 nM, respectively. In addition, the minimal effective dose in test [1] (setting [2]) is 10 mg/kg; in test [1] (setting [3]), over 30 mg/kg.
As to `OCCOc1ccc2c(c1)N(C1CCN(CCc3ccc(F)cc3)CC1)CC2` [Example 121, 1-[1-(4-fluorophenethyl)piperidin-4-yl]-6-hydroxyethoxyindoline], the Ki at serotonin 2 receptor was 22.8 nM; at α1 adrenalin receptor, 58.2 nM; on serotonin 1A receptor, 0.5 nM. The minimal effective dose in test [1] (setting [3]) is 10 mg/kg.
`NC(=O)c1ccc2c(c1)N(C1CCN(CCc3ccc(F)cc3)CC1)CC2` [Example 125, 1-[1-(4-fluorophenethyl)piperidin-4-yl]-6-carbamoylindoline]: the Ki on serotonin 2 receptor stood at 4.76 nM; at α1 adrenalin receptor it was 46.4 nM; at serotonin 1A receptor it was 0.1 nM. Further, the minimal effective dose in test [1] (setting [2]) is 1 mg/kg; in test [1] (setting [3]) it was 3 mg/kg.
As to `CC(=O)NCc1ccc2c(c1)N(C1CCN(CCc3ccc(F)cc3)CC1)CC2` [Example 133, 1-[1-(4-fluorophenethyl)piperidin-4-yl]-6-acetamidomethylindoline], the Ki on serotonin 2 receptor came out at 0.05 nM; on α1 adrenalin receptor, 262 nM; at serotonin 1A receptor it was 3.7 nM. Moreover, the minimal effective dose in test [1] (setting [2]) was 0.3 mg/kg; in test [1] (setting [3]), at most 0.3 mg/kg.
`CC(O)c1ccc2c(c1)N(C1CCN(CCc3ccc(F)cc3)CC1)CC2` (stereo not drawn) [Example 137, 1-[1-(4-fluorophenethyl)piperidin-4-yl]-6-(1-hydroxyethyl)indoline]: the Ki on serotonin 2 receptor amounted to 6.68 nM; at α1 adrenalin receptor, 126 nM; at serotonin 1A receptor, 0.65 nM. For the same compound, in test [1] (setting [3]), the minimal effective dose came out at 1 mg/kg.
For `NC(=O)Cc1ccc2c(c1)N(C1CCN(CCc3ccc(F)cc3)CC1)CC2` [Example 147, 1-[1-(4-fluorophenethyl)piperidin-4-yl]-6-carbamoylmethylindoline], the Ki at serotonin 2 receptor amounted to 0.77 nM; at α1 adrenalin receptor it was 157 nM; on serotonin 1A receptor it was 1.31 nM. For the same compound, the minimal effective dose in test [1] (setting [2]) was at most 0.3 mg/kg; in test [1] (setting [3]), at most 3 mg/kg.
In the case of `CCNC(=O)Cc1ccc2c(c1)N(C1CCN(CCc3ccc(F)cc3)CC1)CC2` [Example 149, 1-[1-(4-fluorophenethyl)piperidin-4-yl]-6-(ethylcarbamoylmethyl)indoline], the Ki at serotonin 2 receptor turned out to be 0.5 nM; on α1 adrenalin receptor, 304 nM; on serotonin 1A receptor, 7.44 nM. In addition, the minimal effective dose in test [1] (setting [2]) is 1 mg/kg; in test [1] (setting [3]), at most 3 mg/kg.
For `CC(C)NC(=O)Cc1ccc2c(c1)N(C1CCN(CCc3ccc(F)cc3)CC1)CC2` [Example 151, 1-[1-(4-fluorophenethyl)piperidin-4-yl]-6-(isopropylcarbamoylmethyl)indoline], the Ki turned out to be 0.57 nM on serotonin 2 receptor, 292 nM on α1 adrenalin receptor and 8.84 nM on serotonin 1A receptor. Further, in test [1] (setting [3]), the minimal effective dose was 3 mg/kg.
In the case of `CNCc1ccc2c(c1)N(C1CCN(CCc3ccc(F)cc3)CC1)CC2` [Example 162, 1-[1-(4-fluorophenethyl)piperidin-4-yl]-6-N-methylaminomethylindoline], the Ki was 27.1 nM at serotonin 2 receptor, 223 nM at α1 adrenalin receptor and 0.98 nM at serotonin 1A receptor. The results for the minimal effective dose in test [1] (setting [2]) and in test [1] (setting [3]) were 1 mg/kg and over 10 mg/kg, respectively.
Turning to `COc1cccc(C(O)c2ccc3c(c2)N(C2CCN(CCc4ccc(F)cc4)CC2)CC3)n1` (stereo not drawn) [Example 186, 1-[1-(4-fluorophenethyl)piperidin-4-yl]-6-[1-hydroxy-1-(2-methoxypyridin-6-yl)methyl]indoline], the Ki on serotonin 2 receptor is 3.32 nM; at serotonin 1A receptor, 14.6 nM. Further, the minimal effective dose in test [1] (setting [3]) turned out to be 10 mg/kg.
Regarding `O=C1NCCN1Cc1ccc2c(c1)N(C1CCN(CCc3ccc(F)cc3)CC1)CC2` [Example 206, 1-[1-(4-fluorophenethyl)piperidin-4-yl]-6-(2-imidazolidonyl)methylindoline], the Ki on serotonin 2 receptor is 2.17 nM; on serotonin 1A receptor, 1.49 nM. Moreover, the minimal effective dose in test [1] (setting [3]) is 10 mg/kg.
Regarding `Clc1ccc2nsnc2c1NC1=NCCN1` [Tizanidine, tizanidine hydrochloride, reference compound], the minimal effective dose in test [1] (setting [2]) and in test [1] (setting [3]) was 1 mg/kg throughout.
